Values quoted from earlier work, collected in patent US6964946B1, “Oral pharmaceutical compositions containing taxanes and methods of treatment employing the same” (Baker Norton Pharmaceuticals, Inc., priority 1995, dated 2005).
“Also recorded” adds a separate entry of the source.

CC(=O)O[C@H]1C(=O)[C@@]2(C)[C@H]([C@H](OC(=O)c3ccccc3)[C@]3(O)C[C@H](OC(=O)[C@H](O)[C@@H](NC(=O)c4ccccc4)c4ccccc4)C(C)=C1C3(C)C)[C@]1(OC(C)=O)CO[C@@H]1C[C@@H]2O [Paclitaxel, paclitaxel]
level at which inhibition of tubulin disassembly occurs (tubulin): about 0.1 μM; also recorded: about 85 ng/ml
level at which inhibition of protein isoprenylation occurs (protein isoprenylation): about 0.03 μM; also recorded: about 25 ng/ml
